Measured values published in patent publication US20240165282A1, “CONFORMATIONAL CONSTRAINED SOMATOSTATIN RECEPTOR 3 PEPTIDE LIGANDS AND THEIR CONJUGATES AND USES THEREOF” (STARGET PHARMA LTD., priority 2021, published 2024).
*1 amine or outer side, *2 acyl side, *3 side chain or, on linkers, in order; H or OH if unused. Where a SMILES comes first, the peptide text is derived from it. Bridges are numbered along the chain shown (N, C = ends). [ ]: non-standard residue; d: D form. The star is where a group is joined. DOTA = O=C(O)CN1CCN(CC(=O)O)CCN(CC(=O)*)CCN(CC(=O)O)CC1; N(2-mercaptoethyl)Gly = O=C(CN(CCS[*:3])[*:1])[*:2]

Assays:
SSTR2 = SSTR2 (Homo sapiens, UniProt P30874); assay: Radioligand binding, displacement of 125I-Tyr11-SRIF-14; design: host or cells: CHO (Chinese Hamster Ovary) cells, membrane preparation
Summary of the method: (§1)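 Assays ran at 25 °C in 25 mM HEPES pH 7.4 with 5 mM MgCl2, 1 mM CaCl2, 0.1% BSA and 1% DMSO. Filter-bound radioactivity gave IC50 by nonlinear least-squares regression.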

SSTR1 = SSTR1 (Homo sapiens, UniProt P30872); assay: as above; design: host or cells: CHO (Chinese Hamster Ovary) cells, membrane preparation
Summary of the method: as §1

SSTR3 = SSTR3 (Homo sapiens, UniProt P32745); assay: as above; design: host or cells: CHO (Chinese Hamster Ovary) cells, membrane preparation
Summary of the method: as §1

PDE4D2 (h) = target: T1, PDE4D2 (h) (Homo sapiens, UniProt Q08499); assay: Cerep off-target enzyme inhibition; format: biochemical; settings: 1 micromolar; Enzymatic; read-out: % Activity: Inhibition of Control Specific Binding
T1 construct: Eurofins Cerep (contract assay)
Experimental: (§2) In this example, off-target interactions for SEQ ID NO.
(§3) The assays were performed by Eurofins Cerep (Celle 1'Evescault, France). Compound binding was calculated as a % inhibition of the binding of a radioactively labeled ligand specific for each target. Compound enzyme inhibition effect was calculated as a % inhibition of control enzyme activity. In each experiment and if applicable, the respective reference compound was tested concurrently with SEQ ID NO. 3, and the data were compared with historical values determined at Eurofins. The experiment was accepted in accordance with Eurofins validation Standard Operating Procedure. Results showing an inhibition (or stimulation for assays run in basal conditions) higher than 50% are considered to represent significant effects of the test compounds.

COX1(h) = target: T2, COX1(h) (Homo sapiens, UniProt P23219); assay: Cerep off-target enzyme inhibition; format: biochemical; settings: 1 micromolar; Enzymatic; read-out: % Activity: Inhibition of Control Specific Binding
T2 construct: Eurofins Cerep (contract assay)
Experimental: as §2, §3

PDE3A (h) = target: T3, PDE3A (h) (Homo sapiens, UniProt Q14432); assay: Cerep off-target enzyme inhibition; format: biochemical; settings: 1 micromolar; Enzymatic; read-out: % Activity: Inhibition of Control Specific Binding
T3 construct: Eurofins Cerep (contract assay)
Experimental: as §2, §3

Lck kinase (h) = target: T4, Lck kinase (h) (Homo sapiens, UniProt P06239); assay: Cerep off-target enzyme inhibition; format: biochemical; settings: 1 micromolar; Enzymatic; read-out: % Activity: Inhibition of Control Specific Binding
T4 construct: Eurofins Cerep (contract assay)
Experimental: as §2, §3

COX2(h) = target: T5, COX2(h) (Homo sapiens, UniProt P35354); assay: Cerep off-target enzyme inhibition; format: biochemical; settings: 1 micromolar; Enzymatic; read-out: % Activity: Inhibition of Control Specific Binding
T5 construct: Eurofins Cerep (contract assay)
Experimental: as §2, §3

acetylcholinesterase (h) = target: T6, acetylcholinesterase (h) (Homo sapiens, UniProt P22303); assay: Cerep off-target enzyme inhibition; format: biochemical; settings: 1 micromolar; Enzymatic; read-out: % Activity: Inhibition of Control Specific Binding
T6 construct: Eurofins Cerep (contract assay)
Experimental: as §2, §3

D2S (h) = D2S (h) (Homo sapiens, UniProt P14416); assay: Cerep off-target radioligand binding; settings: 1 micromolar; agonist radioligand; read-out: % Activity: Inhibition of Control Specific Binding
Experimental: as §2, §3

beta 1 (h) = beta 1 (h) (Homo sapiens, UniProt P08588); assay: Cerep off-target radioligand binding; settings: 1 micromolar; agonist radioligand; read-out: % Activity: Inhibition of Control Specific Binding
Experimental: as §2, §3

5-HT1B (h) = target: T7, 5-HT1B (h) (Homo sapiens, UniProt P28222); assay: Cerep off-target radioligand binding; settings: 1 micromolar; antagonist radioligand; read-out: % Activity: Inhibition of Control Specific Binding
T7 construct: Eurofins Cerep (contract assay)
Experimental: as §2, §3

[1] = target: T8, Potassium Channel hERG (human) (Homo sapiens, UniProt Q12809); assay: Cerep off-target radioligand binding; settings: [3H] Dofetilide, read-out: % Activity: Inhibition of Control Specific Binding
T8 construct: Eurofins Cerep (contract assay)
Experimental: as §2, §3

V1a (h) = target: T9, V1a (h) (Homo sapiens, UniProt P37288); assay: Cerep off-target radioligand binding; settings: 1 micromolar; agonist radioligand; read-out: % Activity: Inhibition of Control Specific Binding
T9 construct: Eurofins Cerep (contract assay)
Experimental: as §2, §3

hSSTR-4 = target: T10, hSSTR-4 (Homo sapiens, UniProt P31391); assay: Radioligand binding, displacement of 125I-Tyr11-SRIF-14
T10 construct: host or cells: Chem-1 (Rat ChemiSCREEN) cells, membrane preparation
Summary of the method: as §1

NMDA = assay: Cerep off-target radioligand binding; design: species or system human; settings: 1 micromolar; antagonist radioligand
Experimental: as §2, §3

[2] = system: Ca2+ channel (L, dihydropyridine site); assay: Cerep off-target radioligand binding; design: species or system human; settings: 1 micromolar; antagonist radioligand
Experimental: as §2, §3

MAO-A = target: T11, MAO-A (Rattus norvegicus, UniProt P21396); assay: Cerep off-target radioligand binding; design: species or system human; settings: 1 micromolar; antagonist radioligand; read-out: % Activity: Inhibition of Control Specific Binding
T11 construct: Eurofins Cerep (assay service)
Experimental: as §2, §3

Na+ channel (site 2) = assay: Cerep off-target radioligand binding; design: species or system human; settings: 1 micromolar; antagonist radioligand
Experimental: as §2, §3

BZD (central) = assay: Cerep off-target radioligand binding; design: species or system human; settings: 1 micromolar; agonist radioligand
Experimental: as §2, §3

AR(h) = assay: Cerep off-target radioligand binding; design: species or system human; settings: 1 micromolar; agonist radioligand
Experimental: as §2, §3

KV channel = assay: Cerep off-target radioligand binding; design: species or system human; settings: 1 micromolar; antagonist radioligand
Experimental: as §2, §3

SSTR5 = SSTR5 (Homo sapiens, UniProt P35346); assay: Radioligand binding, displacement of 125I-Tyr11-SRIF-14; design: host or cells: Chem-1 (Rat ChemiSCREEN) cells, membrane preparation
Summary of the method: as §1

SSTR3, sequence (P32745 whole entry): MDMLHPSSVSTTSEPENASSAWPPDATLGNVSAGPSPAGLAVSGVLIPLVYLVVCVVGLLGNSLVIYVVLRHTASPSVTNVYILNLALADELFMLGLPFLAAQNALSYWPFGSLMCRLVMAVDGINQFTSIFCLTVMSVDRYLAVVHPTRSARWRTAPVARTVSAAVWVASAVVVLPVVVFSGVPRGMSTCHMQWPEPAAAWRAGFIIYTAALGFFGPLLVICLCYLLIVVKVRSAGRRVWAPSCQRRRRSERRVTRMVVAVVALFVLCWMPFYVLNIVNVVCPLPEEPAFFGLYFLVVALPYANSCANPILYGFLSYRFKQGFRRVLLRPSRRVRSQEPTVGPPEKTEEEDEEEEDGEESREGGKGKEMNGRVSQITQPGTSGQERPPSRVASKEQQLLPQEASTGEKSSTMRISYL
SSTR1, sequence (P30872 whole entry): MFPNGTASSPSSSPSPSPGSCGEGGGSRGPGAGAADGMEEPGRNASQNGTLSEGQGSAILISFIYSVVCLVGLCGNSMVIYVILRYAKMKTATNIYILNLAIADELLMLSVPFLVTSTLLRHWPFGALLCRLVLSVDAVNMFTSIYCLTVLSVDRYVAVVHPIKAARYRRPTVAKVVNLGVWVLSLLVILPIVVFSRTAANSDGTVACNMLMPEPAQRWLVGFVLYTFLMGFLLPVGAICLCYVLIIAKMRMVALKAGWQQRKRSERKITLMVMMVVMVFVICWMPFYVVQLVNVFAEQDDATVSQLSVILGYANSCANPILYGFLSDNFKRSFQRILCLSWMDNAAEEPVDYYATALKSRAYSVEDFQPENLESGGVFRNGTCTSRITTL
SSTR2, sequence (P30874 whole entry): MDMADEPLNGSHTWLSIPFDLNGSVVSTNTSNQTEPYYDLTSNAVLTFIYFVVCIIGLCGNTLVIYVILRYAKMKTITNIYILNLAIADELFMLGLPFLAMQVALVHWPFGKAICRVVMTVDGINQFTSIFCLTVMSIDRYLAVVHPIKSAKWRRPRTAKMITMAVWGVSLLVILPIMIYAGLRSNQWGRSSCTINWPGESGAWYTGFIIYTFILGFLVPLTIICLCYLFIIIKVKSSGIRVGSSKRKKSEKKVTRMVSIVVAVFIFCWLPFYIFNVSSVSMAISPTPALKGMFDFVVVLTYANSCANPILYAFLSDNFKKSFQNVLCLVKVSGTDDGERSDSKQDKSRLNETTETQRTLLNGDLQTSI
SSTR5, sequence (P35346 whole entry): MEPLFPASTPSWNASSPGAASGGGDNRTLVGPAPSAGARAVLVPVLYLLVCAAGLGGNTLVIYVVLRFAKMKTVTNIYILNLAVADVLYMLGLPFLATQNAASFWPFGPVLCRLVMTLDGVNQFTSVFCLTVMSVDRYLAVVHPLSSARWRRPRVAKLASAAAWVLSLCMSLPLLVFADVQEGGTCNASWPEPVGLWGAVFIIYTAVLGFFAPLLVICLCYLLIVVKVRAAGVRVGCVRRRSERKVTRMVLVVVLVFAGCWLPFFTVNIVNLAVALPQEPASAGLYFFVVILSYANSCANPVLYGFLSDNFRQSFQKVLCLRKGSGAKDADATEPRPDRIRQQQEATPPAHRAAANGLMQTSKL
T10 sequence (P31391 whole entry): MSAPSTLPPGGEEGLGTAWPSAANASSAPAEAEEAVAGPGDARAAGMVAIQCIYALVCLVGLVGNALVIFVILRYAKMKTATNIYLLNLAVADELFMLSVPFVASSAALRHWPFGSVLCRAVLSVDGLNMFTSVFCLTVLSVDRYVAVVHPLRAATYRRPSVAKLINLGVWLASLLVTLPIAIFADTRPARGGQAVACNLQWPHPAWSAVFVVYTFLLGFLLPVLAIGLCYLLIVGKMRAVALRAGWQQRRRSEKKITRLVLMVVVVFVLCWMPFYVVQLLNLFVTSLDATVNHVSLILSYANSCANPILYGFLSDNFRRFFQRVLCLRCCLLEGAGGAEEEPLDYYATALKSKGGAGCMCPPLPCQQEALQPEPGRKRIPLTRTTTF
T11 sequence (P21396 whole entry): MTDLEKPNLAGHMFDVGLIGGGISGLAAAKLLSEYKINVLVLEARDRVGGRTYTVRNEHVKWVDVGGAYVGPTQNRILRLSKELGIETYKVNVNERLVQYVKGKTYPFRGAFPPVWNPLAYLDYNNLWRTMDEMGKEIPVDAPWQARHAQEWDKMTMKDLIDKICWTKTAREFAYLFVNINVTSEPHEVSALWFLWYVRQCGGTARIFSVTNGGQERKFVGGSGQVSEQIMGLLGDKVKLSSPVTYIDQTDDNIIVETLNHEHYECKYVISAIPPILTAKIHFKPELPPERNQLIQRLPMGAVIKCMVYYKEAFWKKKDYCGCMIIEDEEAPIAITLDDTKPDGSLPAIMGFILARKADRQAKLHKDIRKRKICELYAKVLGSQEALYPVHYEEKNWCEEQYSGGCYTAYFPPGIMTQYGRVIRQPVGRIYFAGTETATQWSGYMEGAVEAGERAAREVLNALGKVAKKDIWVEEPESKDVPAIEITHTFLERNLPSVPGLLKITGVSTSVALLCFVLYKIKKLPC
T7 sequence (P28222 whole entry): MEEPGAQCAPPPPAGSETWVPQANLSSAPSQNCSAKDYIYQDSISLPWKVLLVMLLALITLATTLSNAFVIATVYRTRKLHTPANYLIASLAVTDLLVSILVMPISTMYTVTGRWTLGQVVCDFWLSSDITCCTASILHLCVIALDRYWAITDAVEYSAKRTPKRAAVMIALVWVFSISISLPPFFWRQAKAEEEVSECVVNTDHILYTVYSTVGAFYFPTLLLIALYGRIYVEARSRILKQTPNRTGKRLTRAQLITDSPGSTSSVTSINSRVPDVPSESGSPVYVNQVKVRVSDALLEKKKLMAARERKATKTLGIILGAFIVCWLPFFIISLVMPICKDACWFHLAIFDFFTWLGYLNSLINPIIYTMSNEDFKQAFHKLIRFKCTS
T5 sequence (P35354 18-604): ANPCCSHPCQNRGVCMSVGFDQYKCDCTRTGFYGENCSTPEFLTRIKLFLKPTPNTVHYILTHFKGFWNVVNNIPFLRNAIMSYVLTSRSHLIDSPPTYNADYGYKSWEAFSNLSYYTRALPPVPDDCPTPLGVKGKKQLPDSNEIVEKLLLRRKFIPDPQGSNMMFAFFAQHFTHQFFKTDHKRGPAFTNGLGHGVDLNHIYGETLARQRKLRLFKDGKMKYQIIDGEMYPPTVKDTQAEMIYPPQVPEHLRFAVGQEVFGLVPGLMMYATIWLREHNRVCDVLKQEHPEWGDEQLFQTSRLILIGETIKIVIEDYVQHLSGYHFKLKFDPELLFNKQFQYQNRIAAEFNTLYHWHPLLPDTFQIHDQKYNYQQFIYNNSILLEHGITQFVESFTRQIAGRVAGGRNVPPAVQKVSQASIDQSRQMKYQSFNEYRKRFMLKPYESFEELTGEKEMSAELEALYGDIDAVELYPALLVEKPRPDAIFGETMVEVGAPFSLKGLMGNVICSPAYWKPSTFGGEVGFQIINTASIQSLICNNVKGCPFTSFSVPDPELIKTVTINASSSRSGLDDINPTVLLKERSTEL
T1 sequence (Q08499 303-809): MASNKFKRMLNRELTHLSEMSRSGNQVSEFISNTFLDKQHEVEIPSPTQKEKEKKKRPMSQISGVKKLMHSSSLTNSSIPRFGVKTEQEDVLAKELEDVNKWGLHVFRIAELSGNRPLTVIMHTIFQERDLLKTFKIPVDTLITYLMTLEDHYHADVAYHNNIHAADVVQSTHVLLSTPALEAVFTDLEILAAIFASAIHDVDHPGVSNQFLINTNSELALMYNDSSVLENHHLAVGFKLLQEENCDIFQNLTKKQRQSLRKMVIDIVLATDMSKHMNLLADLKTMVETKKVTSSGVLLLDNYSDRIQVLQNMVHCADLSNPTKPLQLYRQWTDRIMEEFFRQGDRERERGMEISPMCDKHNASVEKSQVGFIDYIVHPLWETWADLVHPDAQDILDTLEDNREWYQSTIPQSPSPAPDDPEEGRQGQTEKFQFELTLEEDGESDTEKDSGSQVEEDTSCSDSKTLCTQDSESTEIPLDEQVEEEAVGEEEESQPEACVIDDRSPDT
T4 sequence (P06239 whole entry): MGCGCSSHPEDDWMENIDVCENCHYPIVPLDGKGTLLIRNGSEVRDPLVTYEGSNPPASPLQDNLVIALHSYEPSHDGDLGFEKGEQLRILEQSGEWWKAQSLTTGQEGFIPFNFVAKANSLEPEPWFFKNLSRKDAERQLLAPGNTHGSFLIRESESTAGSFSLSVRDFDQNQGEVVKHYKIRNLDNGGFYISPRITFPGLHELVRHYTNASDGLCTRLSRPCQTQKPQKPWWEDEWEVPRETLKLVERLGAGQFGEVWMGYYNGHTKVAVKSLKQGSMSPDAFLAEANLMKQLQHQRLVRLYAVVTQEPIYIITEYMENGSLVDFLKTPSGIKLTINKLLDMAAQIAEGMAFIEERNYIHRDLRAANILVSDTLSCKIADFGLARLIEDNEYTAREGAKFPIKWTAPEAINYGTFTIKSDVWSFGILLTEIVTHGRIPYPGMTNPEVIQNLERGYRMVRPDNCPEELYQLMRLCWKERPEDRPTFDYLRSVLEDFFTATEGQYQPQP
beta 1 (h), sequence (P08588 whole entry): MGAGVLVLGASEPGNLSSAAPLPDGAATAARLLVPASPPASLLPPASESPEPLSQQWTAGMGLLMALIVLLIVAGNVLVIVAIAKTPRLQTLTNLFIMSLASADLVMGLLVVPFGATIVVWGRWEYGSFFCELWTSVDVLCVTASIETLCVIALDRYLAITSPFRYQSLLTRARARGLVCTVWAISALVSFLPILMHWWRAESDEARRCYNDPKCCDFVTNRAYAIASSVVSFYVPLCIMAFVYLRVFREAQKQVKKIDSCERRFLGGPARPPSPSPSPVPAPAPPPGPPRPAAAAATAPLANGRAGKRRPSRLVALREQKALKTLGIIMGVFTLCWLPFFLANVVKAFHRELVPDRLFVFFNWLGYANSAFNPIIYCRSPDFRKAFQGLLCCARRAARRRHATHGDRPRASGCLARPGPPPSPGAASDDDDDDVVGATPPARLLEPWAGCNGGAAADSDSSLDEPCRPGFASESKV

Q: Which results are given for `C[C@@H](O)[C@@H]1NC(=O)[C@H](CCCCN)NC(=O)[C@@H](Cc2c[nH]c3ccccc23)NC(=O)[C@H](Cc2ccccc2)NC(=O)[C@@H](NC(=O)[C@H](CCCNC(=N)N)NC(=O)[C@@H](Cc2ccccc2)NC(=O)CN2CCN(CC(=O)O)CCN(CC(=O)O)CCN(CC(=O)O)CC2)CSSCCN(CC(N)=O)C(=O)[C@H](Cc2ccccc2)NC1=O` [SEQ ID NO: 3, DOTA-D-Phe^1-Arg^2-Cys^3-Phe^4-D-Trp^5-Lys^6-Thr^7-Phe^8-NTEG^9-NH2 cyclo 3-9] ({DOTA}-[dF]RCF[dW]KTF[N(2-mercaptoethyl)Gly]-NH2; disulfide 3-9)?
A: IC50 (SSTR2): 590 nM; Ki (SSTR2): 310 nM; Hill coefficient (nH) (SSTR2; hSSTR-2): 1.62; IC50 (SSTR1): 310 nM; Ki (SSTR1): 260 nM; Hill coefficient (nH) (SSTR1; hSSTR-1): 0.86; IC50 (SSTR3): 0.83 nM; Ki (SSTR3): 0.28 nM; affinity and selectivity to SSTR3 (in words) (SSTR3; binding data, listed as DOTA conjugate of SEQ ID NO: 1): did not interfere with the binding affinity and selectivity of SEQ ID NO: 1; Hill coefficient (nH) (SSTR3; hSSTR-3): 1.15; inhibition at 1 µM (PDE4D2 (h)): -2%; inhibition at 1 µM (COX1(h)): 9%; inhibition at 1 µM (PDE3A (h)): 0%; inhibition at 1 µM (Lck kinase (h)): -4%; inhibition at 1 µM (COX2(h)): 18%; inhibition at 1 µM (acetylcholinesterase (h)): 6%; inhibition at 1 µM (D2S (h)): 3%; inhibition at 1 µM (beta 1 (h)): 5%; inhibition at 1 µM (5-HT1B (h)): 1%; inhibition at 1 micromolar [1]: -9%; inhibition at 1 µM (V1a (h)): 0%; IC50 (hSSTR-4): > 1000 nM; Ki (hSSTR-4): > 1000 nM; Hill coefficient (nH) (hSSTR-4; hSSTR-4): 1.14; % Activity: Inhibition of Control Specific Binding (NMDA): 10%; % Activity: Inhibition of Control Specific Binding [2]: −10%; inhibition at 1 µM (MAO-A): 3%; % Activity: Inhibition of Control Specific Binding (Na+ channel (site 2)): 3%; % Activity: Inhibition of Control Specific Binding (BZD (central)): −7%; % Activity: Inhibition of Control Specific Binding (AR(h)): −9%; % Activity: Inhibition of Control Specific Binding (KV channel): −5%; IC50 (SSTR5): > 1000 nM; Ki (SSTR5): 660 nM; Hill coefficient (nH) (SSTR5; hSSTR-5): 1.57
